In patent publication US20160041146A1 (priority 2014, published 2016):
Where two headings read alike, the source gives them in different places.

Format: in vivo, human
Conditions: for Urine concentration (median): 50 subjects; for μA, population mean of ln(PMET/SMET), ratio of primary (parent) to secondary metabolite concentration in urine: large batch of historical UDT patient data (for quetiapine: model A), the σA is the standard deviation
Source text: Determining the amount of a drug in fluid of the subject may be accomplished by use of any method known to those skilled in the art. Non-limiting examples for determining the amount of a drug in fluid of a subject include fluorescence polarization immunoassay (“FPIA,” Abbott Diagnostics), mass spectrometry (MS), gas chromatography-mass spectrometry (GC-MS-MS), liquid chromatography-mass spectrometry (LC-MS-MS), and the like. In one embodiment, LC-MS-MS methods known to those skilled in the art are used to determine a raw level, amount or concentration of a drug in urine of the subject. In one embodiment, a raw level or concentration of a drug in urine of a subject is measured and reported as a ratio, percent, or in relationship to the amount of fluid. The amount of fluid may be expressed as a unit volume, for example, in L, mL, μL, pL, ounce, etc. In one embodiment, the raw amount of a drug in urine of a subject may be expressed as an absolute level or value, for example, in g, mg, μg, ng, pg, etc.
In an embodiment, the raw primary metabolite and secondary metabolite concentrations measured in urine of the subject are transformed and normalized (hereafter “Equation 3”): […]
where ln is the natural log, PMET is the concentration of the primary metabolite also referred to as the parent drug in […]; and SMET is the concentration of the secondary metabolite in […]. The value is then transformed into its corresponding value on the standard normal (e.g., Gaussian) distribution using (hereafter “Equation 4): […]
where NORMSTD(RATIO) is the standardized normal value (also referred to herein as the Z-score) and μA and σA are the mean and the standard deviation respectively of the population used to construct the model described in Equation 3. The resulting mean and standard deviation of the standardized normal distribution, NORMSTD(RATIO), are “0” and “1” respectively.
The Data Sets used to establish the ratio models were cleaned as detailed below and the resulting information used only considered patients who tested positive for the primary and secondary metabolite of interest and were prescribed the drug of interest. Furthermore, to ensure integrity of the data only patients with qualifying sample validity test information (sample pH and sample creatinine level), as described in detail in other embodiments were included in the model. […] Consequently, all patients were included in the model regardless of whether their illicit drug test was positive or negative.
Once the patient(s) meet acceptable Sample Validity test results and non-zero values, expected values based on the model can be calculated using the models described below (Equation 3 and Equation 4 detailed in other embodiments).

[1] = patient validity data set for Quetiapine models, average quetiapine dosage 299 mg
[2] = patient validity data set for Alprazolam model, average alprazolam dosage 2.26 mg
[3] = Oxycodone model population, approximately 48,800 patient results over one year, average daily dosage 36 mg
[4] = patient validity data set for Oxycodone model, average oxycodone dosage 24 mg

In the case of `OCCOCCN1CCN(C2=Nc3ccc(O)cc3Sc3ccccc32)CC1` [7-hydroxyquetiapine], the “median urine drug concentration” value (Alprazolam model population, approximately 256,000 patient results over nine years, average daily dosage 3 mg) was 329 ng/mL, the “median urine drug concentration” value (Quetiapine model A population, approximately 5,455 patient results collected over three years, average daily dosage 229 mg) was 95 ng/mL and the “median urine drug concentration” value (Quetiapine model B population, approximately 236 patient results, six month clinical trial, average daily dosage 310 mg) was 55 ng/mL. The “Urine concentration (median)” value [1] was 62 ng/mL.

In the case of `OCc1nnc2n1-c1ccc(Cl)cc1C(c1ccccc1)=NC2` [alpha-hydroxyalprazolam], the “Urine concentration (median)” value [2] was 265 ng/mL.

In the case of `Cc1nnc2n1-c1ccc(Cl)cc1C(c1ccccc1)=NC2` [alprazolam], the “μA, population mean of ln(PMET/SMET), ratio of primary (parent) to secondary metabolite concentration in urine” value was −0.463 and the “Urine concentration (median)” value [2] was 118 ng/mL.

For `COc1ccc2c3c1O[C@H]1C(=O)CC[C@H]4[C@@H](C2)N(C)CC[C@]314` [hydrocodone], the “median urine drug concentration” value (Hydrocodone model population, approximately 84,000 patient results over one year, average daily dosage 32 mg) was 1395 ng/mL, the “μA, population mean of ln(PMET/SMET), ratio of primary (parent) to secondary metabolite concentration in urine” value was 0.996 and the “Urine concentration (median)” value (patient validity data set for Hydrocodone model, average hydrocodone dosage 26 mg) was 1428 ng/mL.

With `COc1ccc2c3c1O[C@H]1C(=O)CC[C@@]4(O)[C@@H](C2)N(C)CC[C@]314` [oxycodone] the “median urine drug concentration” value [3] was 1421 ng/mL, the “μA, population mean of ln(PMET/SMET), ratio of primary (parent) to secondary metabolite concentration in urine” value was −0.083 and the “Urine concentration (median)” value [4] was 1509 ng/mL.

For `CN1CC[C@]23c4c5ccc(O)c4O[C@H]2C(=O)CC[C@@]3(O)[C@H]1C5` [oxymorphone], the “median urine drug concentration” value [3] was 1248 ng/mL and the “Urine concentration (median)” value [4] was 1579 ng/mL.

With `OCCOCCN1CCN(C2=Nc3ccccc3Sc3ccccc32)CC1` [quetiapine] the “Urine concentration (median)” value [1] was 69 ng/mL.
